Columns and labels:
Assay type in all cases: cell-based
[1] = target: T1, norepinephrine transporter (hNET) (Homo sapiens, UniProt P23975); assay: [3H]MPP+ preloading and efflux in CHO cells expressing WT hNET
T1 construct: gene SLC6A2; WT hNET

[2] = target: T1, norepinephrine transporter (hNET); assay: [3H]Nisoxetine competition binding in intact CHO-K1 cells; also [3H]DA uptake inhibition (IC50 […]) and slowed [3H]Nisoxetine dissociation
[3] = target: T2, dopamine transporter (hDAT) (Homo sapiens, UniProt Q01959); assay: [3H]DA uptake inhibition in CHO-K1 cells expressing WT hDAT
T2 construct: gene SLC6A3; WT hDAT
T2 sequence (Q01959 whole entry): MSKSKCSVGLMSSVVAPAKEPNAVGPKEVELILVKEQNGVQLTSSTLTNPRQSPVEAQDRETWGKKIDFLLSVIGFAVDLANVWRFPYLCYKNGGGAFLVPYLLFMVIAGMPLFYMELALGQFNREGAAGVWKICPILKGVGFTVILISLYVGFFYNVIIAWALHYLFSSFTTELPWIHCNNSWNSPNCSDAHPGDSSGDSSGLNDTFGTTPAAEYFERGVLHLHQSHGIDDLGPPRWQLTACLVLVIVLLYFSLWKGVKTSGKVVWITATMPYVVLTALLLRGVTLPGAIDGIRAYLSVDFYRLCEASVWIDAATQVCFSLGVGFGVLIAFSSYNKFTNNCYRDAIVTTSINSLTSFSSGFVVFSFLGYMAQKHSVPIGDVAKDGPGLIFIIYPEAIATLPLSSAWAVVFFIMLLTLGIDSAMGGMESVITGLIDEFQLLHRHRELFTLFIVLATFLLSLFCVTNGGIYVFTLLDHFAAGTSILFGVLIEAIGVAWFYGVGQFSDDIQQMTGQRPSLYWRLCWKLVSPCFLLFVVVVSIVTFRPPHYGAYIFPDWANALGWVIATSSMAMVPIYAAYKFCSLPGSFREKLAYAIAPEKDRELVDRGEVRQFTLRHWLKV

T1 sequence (P23975 whole entry): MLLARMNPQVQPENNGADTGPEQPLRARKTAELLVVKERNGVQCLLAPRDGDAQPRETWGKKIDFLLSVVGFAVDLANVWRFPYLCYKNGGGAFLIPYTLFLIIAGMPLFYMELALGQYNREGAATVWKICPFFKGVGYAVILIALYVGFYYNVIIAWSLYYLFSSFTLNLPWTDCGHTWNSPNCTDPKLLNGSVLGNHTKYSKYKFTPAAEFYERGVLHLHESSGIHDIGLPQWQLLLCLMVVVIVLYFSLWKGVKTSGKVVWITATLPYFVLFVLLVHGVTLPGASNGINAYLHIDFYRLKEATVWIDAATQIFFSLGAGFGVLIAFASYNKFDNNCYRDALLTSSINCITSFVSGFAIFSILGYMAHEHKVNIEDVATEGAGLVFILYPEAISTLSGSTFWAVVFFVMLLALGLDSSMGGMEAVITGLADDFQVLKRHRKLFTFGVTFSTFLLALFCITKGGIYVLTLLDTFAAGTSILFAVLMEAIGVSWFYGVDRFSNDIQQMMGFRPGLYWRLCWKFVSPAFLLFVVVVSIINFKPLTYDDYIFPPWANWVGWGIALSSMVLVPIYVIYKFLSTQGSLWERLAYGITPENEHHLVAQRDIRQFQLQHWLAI

Molecule | [3H]MPP+ preloading and efflux in CHO cells expressing WT hNET [1] | IC50 [2] [µM] | IC50 [3] [µM]
C[n+]1ccc(-c2ccccc2)cc1 [MPP+, N-methyl-4-phenylpyridinium] | decreased both basal [^3H]DA and [^3H]MPP^+ efflux via WT hNET compared with the control | – | –
SRI-32743 | – | 26.4 ± 5.17 | 8.16 ± 1.16

Reference: PMC11277056, “Effects of SRI-32743, a Novel Quinazoline Structure-Based Compound, on HIV-1 Tat and Cocaine Interaction with Norepinephrine Transporter” (International Journal of Molecular Sciences, 2024)
